Measurements published in US8835462B2, “Macrocyclic picolinamides as fungicides” (Dow AgroSciences LLC, priority 2012, dated 2014).
Read-outs that look alike come from different tables or passages of the source.

What was measured:
Assay type in all cases: in vivo
Puccinia triticina = test: Wheat brown rust (PUCCRT) fungicidal activity on wheat seedlings
Protocol: Technical grades of materials were dissolved in acetone, which were then mixed with nine volumes of water containing 110 ppm Triton X-100. The fungicide solutions were applied onto wheat seedlings using an automated booth sprayer to run-off. All sprayed plants were allowed to air dry prior to further handling. Wheat plants (variety Yuma) were grown from seed in a greenhouse in 50% mineral soil/50% soil-less Metro mix until the first leaf was fully emerged, with 7-10 seedlings per pot. These plants were inoculated with an aqueous spore suspension of Septoria tritici either prior to or after fungicide treatments. After inoculation the plants were kept in 100% relative humidity (one day in a dark dew chamber followed by two to three days in a lighted dew chamber at 20° C.) to permit spores to germinate and infect the leaf. The plants were then transferred to a greenhouse set at 20° C. for disease to develop. When disease symptoms were fully expressed on the 1st leaves of untreated plants, infection levels were assessed on a scale of 0 to 100 percent disease severity. Percent disease control was calculated using the ratio of disease severity on treated plants relative to untreated plants. Evaluation of Fungicidal Activity: Wheat Brown Rust (Puccinia triticina; Synonym: Puccinia recondita f. sp. tritici; Bayer Code PUCCRT) Wheat plants (variety Yuma) were grown from seed in a greenhouse in 50% mineral soil/50% soil-less Metro mix until the first leaf was fully emerged, with 7-10 seedlings per pot. These plants were inoculated with an aqueous spore suspension of Puccinia triticina either prior to or after fungicide treatments. After inoculation the plants were kept in a dark dew room at 22° C. with 100% relative humidity overnight to permit spores to germinate and infect the leaf. The plants were then transferred to a greenhouse set at 24° C. for disease to develop. Fungicide formulation, application and disease assessment followed the procedures as described in the Example A.

Uncinula necator = test: Grape powdery mildew (UNCINE) fungicidal activity; conditions: Erysiphe necator, 24 h, 1 Day Protectant, read-out: Disease Control UNCINE 1DP
Protocol: Technical grades of materials were dissolved in acetone, which were then mixed with nine volumes of water containing 110 ppm Triton X-100. The fungicide solutions were applied onto wheat seedlings using an automated booth sprayer to run-off. All sprayed plants were allowed to air dry prior to further handling. Wheat plants (variety Yuma) were grown from seed in a greenhouse in 50% mineral soil/50% soil-less Metro mix until the first leaf was fully emerged, with 7-10 seedlings per pot. These plants were inoculated with an aqueous spore suspension of Septoria tritici either prior to or after fungicide treatments. After inoculation the plants were kept in 100% relative humidity (one day in a dark dew chamber followed by two to three days in a lighted dew chamber at 20° C.) to permit spores to germinate and infect the leaf. The plants were then transferred to a greenhouse set at 20° C. for disease to develop. When disease symptoms were fully expressed on the 1st leaves of untreated plants, infection levels were assessed on a scale of 0 to 100 percent disease severity. Percent disease control was calculated using the ratio of disease severity on treated plants relative to untreated plants. Evaluation of Fungicidal Activity: Grape Powdery Mildew (Uncinula Necator; Bayer Code […]) Grape seedlings (variety Carignane) were grown in soil-less Metro mix, with one plant per pot, and used in the test when approximately one month old. Plants were inoculated 24 hr after fungicide treatment by shaking spores from infected leaves over test plants. Plants were maintained in a greenhouse set at 20° C. until disease was fully developed. Fungicide formulation, application and disease assessment on the sprayed leaves followed the procedures as described in the Example A.

Cercospora beticola = test: Leaf spot of sugar beets (CERCBE) fungicidal activity; conditions: 24 h, 1 Day Protectant, sugar beet, read-out: Disease Control CERCBE 1DP
Protocol: Technical grades of materials were dissolved in acetone, which were then mixed with nine volumes of water containing 110 ppm Triton X-100. The fungicide solutions were applied onto wheat seedlings using an automated booth sprayer to run-off. All sprayed plants were allowed to air dry prior to further handling. Wheat plants (variety Yuma) were grown from seed in a greenhouse in 50% mineral soil/50% soil-less Metro mix until the first leaf was fully emerged, with 7-10 seedlings per pot. These plants were inoculated with an aqueous spore suspension of Septoria tritici either prior to or after fungicide treatments. After inoculation the plants were kept in 100% relative humidity (one day in a dark dew chamber followed by two to three days in a lighted dew chamber at 20° C.) to permit spores to germinate and infect the leaf. The plants were then transferred to a greenhouse set at 20° C. for disease to develop. When disease symptoms were fully expressed on the 1st leaves of untreated plants, infection levels were assessed on a scale of 0 to 100 percent disease severity. Percent disease control was calculated using the ratio of disease severity on treated plants relative to untreated plants. Evaluation of Fungicidal Activity: Leaf Spot of Sugar Beets (Cercospora Beticola; Bayer Code CERCBE) Sugar beet plants (variety HH88) were grown in soil-less Metro mix and trimmed regularly to maintain an uniform plant size prior to test. Plants were inoculated with a spore suspension 24 hr after fungicide treatments. Inoculated plants were kept in a dew chamber at 22° C. for 48 hr then incubated in a greenhouse set at 24° C. under a clear plastic hood with bottom ventilation until disease symptoms were fully expressed. Fungicide formulation, application and disease assessment on the sprayed leaves followed the procedures as described in the Example A.

[1] = system: Glomerella lagenarium; Anamorph: Colletotricum lagenarium; test: Cucumber anthracnose (COLLLA) fungicidal activity; conditions: Colletotrichum orbiculare, 24 h, 1 Day Protectant, read-out: Disease Control COLLLA 1DP
Protocol: Technical grades of materials were dissolved in acetone, which were then mixed with nine volumes of water containing 110 ppm Triton X-100. The fungicide solutions were applied onto wheat seedlings using an automated booth sprayer to run-off. All sprayed plants were allowed to air dry prior to further handling. Wheat plants (variety Yuma) were grown from seed in a greenhouse in 50% mineral soil/50% soil-less Metro mix until the first leaf was fully emerged, with 7-10 seedlings per pot. These plants were inoculated with an aqueous spore suspension of Septoria tritici either prior to or after fungicide treatments. After inoculation the plants were kept in 100% relative humidity (one day in a dark dew chamber followed by two to three days in a lighted dew chamber at 20° C.) to permit spores to germinate and infect the leaf. The plants were then transferred to a greenhouse set at 20° C. for disease to develop. When disease symptoms were fully expressed on the 1st leaves of untreated plants, infection levels were assessed on a scale of 0 to 100 percent disease severity. Percent disease control was calculated using the ratio of disease severity on treated plants relative to untreated plants. Evaluation of Fungicidal Activity: Cucumber Anthracnose (Glomerella Lagenarium; Anamorph: Colletotricum Lagenarium; Bayer Code COLLLA) Cucumber seedlings (variety Bush Pickle) were propagated in soil-less Metro mix, with each pot having one plant, and used in the test when 12 to 14 days old. Test plants were inoculated with an aqueous spore suspension of Colletotricum lagenarium 24 hr after fungicide treatments. After inoculation the plants were kept in a dew room at 22° C. with 100% relative humidity for 48 hr to permit spores to germinate and infect the leaf. The plants were then transferred to a growth room set at 22° C. for disease to develop. Fungicide formulation, application and disease assessment on the sprayed leaves followed the procedures as described in the Example A.

[2] = 24 h, 1 Day Protectant, read-out: Disease Control PUCCRT 1 DP
[3] = 72 h, 3 Day Curative, read-out: Disease Control PUCCRT 3 DC

COc1ccnc(C(=O)N[C@H]2COC[C@H](Cc3ccccc3)[C@@H](OCC(C)C)[C@H](C)OC2=O)c1O [Compound 2, N-((3S,7S,8R,9S)-7-benzyl-8-isobutoxy-9-methyl-2-oxo-1,5-dioxonan-3-yl)-3-hydroxy-4-methoxypicolinamide]
pest or weed control at 100 ppm (Puccinia triticina; [2]): 80 to 100% | pest or weed control at 100 ppm (Puccinia triticina; [3]): 80 to 100% | pest or weed control at 100 ppm (Uncinula necator): 0 to 80%

COc1ccnc(C(=O)N[C@H]2COC[C@H](Cc3ccccc3)[C@@H](OCC(C)C)[C@H](C)OC2=O)c1OCOC(=O)C(C)C [Compound 3]
pest or weed control at 100 ppm (Puccinia triticina; [2]): 80 to 100% | pest or weed control at 100 ppm (Puccinia triticina; [3]): 80 to 100% | pest or weed control at 100 ppm (Uncinula necator): 80 to 100% | pest or weed control at 100 ppm (Cercospora beticola): 80 to 100% | pest or weed control at 100 ppm [1]: 80 to 100%

COc1ccnc(C(=O)N[C@H]2COC[C@H](Cc3ccccc3)[C@@H](OCC(C)C)[C@H](C)OC2=O)c1OCOC(=O)C(C)(C)C [Compound 7]
pest or weed control at 100 ppm (Puccinia triticina; [2]): 80 to 100% | pest or weed control at 100 ppm (Puccinia triticina; [3]): 80 to 100% | pest or weed control at 100 ppm (Uncinula necator): 80 to 100% | pest or weed control at 100 ppm (Cercospora beticola): 80 to 100%

COc1ccnc(C(=O)N[C@H]2COC[C@H](Cc3ccccc3)[C@@H](OCC(C)C)[C@H](C)OC2=O)c1OCOC(C)=O [Compound 8, (2-((3S,7S,8R,9S)-7-benzyl-8-isobutoxy-9-methyl-2-oxo-1,5-dioxonan-3-ylcarbamoyl)-4-methoxypyridin-3-yloxy)methyl acetate]
pest or weed control at 100 ppm (Puccinia triticina; [2]): 80 to 100% | pest or weed control at 100 ppm (Puccinia triticina; [3]): 80 to 100% | pest or weed control at 100 ppm (Uncinula necator): 80 to 100% | pest or weed control at 100 ppm (Cercospora beticola): 80 to 100% | pest or weed control at 100 ppm [1]: 80 to 100%

COc1ccnc(C(=O)N[C@H]2COC[C@H](Cc3ccccc3)[C@@H](OCC(C)C)[C@H](C)OC2=O)c1OC(C)=O [Compound 9, 2-(((3S,7S,8R,9S)-7-benzyl-8-isobutoxy-9-methyl-2-oxo-1,5-dioxonan-3-yl)carbamoyl)-4-methoxypyridin-3-yl acetate]
pest or weed control at 100 ppm (Puccinia triticina; [2]): 80 to 100% | pest or weed control at 100 ppm (Puccinia triticina; [3]): 80 to 100% | pest or weed control at 100 ppm (Uncinula necator): 80 to 100% | pest or weed control at 100 ppm (Cercospora beticola): 80 to 100%

COc1ccnc(C(=O)N[C@H]2COC[C@H](Cc3ccccc3)[C@@H](OCC(C)C)[C@H](C)OC2=O)c1OC(=O)OC(C)C [Compound 10, 2-(((3S,7S,8R,9S)-7-benzyl-8-isobutoxy-9-methyl-2-oxo-1,5-dioxonan-3-yl)carbamoyl)-4-methoxypyridin-3-yl isopropyl carbonate]
pest or weed control at 100 ppm (Puccinia triticina; [2]): 80 to 100% | pest or weed control at 100 ppm (Puccinia triticina; [3]): 80 to 100% | pest or weed control at 100 ppm (Uncinula necator): 0 to 80% | pest or weed control at 100 ppm (Cercospora beticola): 80 to 100%

COc1ccnc(C(=O)N[C@H]2COC[C@H](Cc3ccccc3)[C@@H](OCCC(=O)N(C)C)[C@H](C)OC2=O)c1OCOC(C)=O [Compound 15]
pest or weed control at 100 ppm (Puccinia triticina; [2]): 0 to 80% | pest or weed control at 100 ppm (Puccinia triticina; [3]): 0 to 80% | pest or weed control at 100 ppm (Uncinula necator): 0 to 80% | pest or weed control at 100 ppm (Cercospora beticola): 0 to 80% | pest or weed control at 100 ppm [1]: 0 to 80%

COCCCO[C@@H]1[C@@H](Cc2ccccc2)COC[C@H](NC(=O)c2nccc(OC)c2OCOC(C)=O)C(=O)O[C@H]1C [Compound 16]
pest or weed control at 100 ppm (Puccinia triticina; [2]): 80 to 100% | pest or weed control at 100 ppm (Puccinia triticina; [3]): 80 to 100% | pest or weed control at 100 ppm (Uncinula necator): 0 to 80% | pest or weed control at 100 ppm (Cercospora beticola): 80 to 100% | pest or weed control at 100 ppm [1]: 80 to 100%

CCCO[C@@H]1[C@@H](Cc2ccccc2)COC[C@H](NC(=O)c2nccc(OC)c2OCOC(C)=O)C(=O)O[C@H]1C [Compound 22]
pest or weed control at 100 ppm (Puccinia triticina; [2]): 80 to 100% | pest or weed control at 100 ppm (Puccinia triticina; [3]): 80 to 100% | pest or weed control at 100 ppm (Uncinula necator): 80 to 100% | pest or weed control at 100 ppm (Cercospora beticola): 80 to 100% | pest or weed control at 100 ppm [1]: 80 to 100%

COc1ccnc(C(=O)N[C@H]2COC[C@H](Cc3ccccc3)[C@@H](OCCCC(F)(F)F)[C@H](C)OC2=O)c1OCOC(C)=O [Compound 23]
pest or weed control at 100 ppm (Puccinia triticina; [2]): 80 to 100% | pest or weed control at 100 ppm (Puccinia triticina; [3]): 80 to 100% | pest or weed control at 100 ppm (Uncinula necator): 0 to 80% | pest or weed control at 100 ppm (Cercospora beticola): 80 to 100% | pest or weed control at 100 ppm [1]: 80 to 100%

CCCCCO[C@@H]1[C@@H](Cc2ccccc2)COC[C@H](NC(=O)c2nccc(OC)c2OCOC(C)=O)C(=O)O[C@H]1C [Compound 26]
pest or weed control at 100 ppm (Puccinia triticina; [2]): 80 to 100% | pest or weed control at 100 ppm (Puccinia triticina; [3]): 80 to 100% | pest or weed control at 100 ppm (Uncinula necator): 80 to 100% | pest or weed control at 100 ppm (Cercospora beticola): 80 to 100% | pest or weed control at 100 ppm [1]: 80 to 100%

COc1ccnc(C(=O)N[C@H]2COC[C@H](Cc3ccccc3)[C@@H](OCCCc3ccccc3)[C@H](C)OC2=O)c1OCOC(C)=O [Compound 34]
pest or weed control at 100 ppm (Puccinia triticina; [2]): 80 to 100% | pest or weed control at 100 ppm (Puccinia triticina; [3]): 80 to 100% | pest or weed control at 100 ppm (Uncinula necator): 0 to 80% | pest or weed control at 100 ppm (Cercospora beticola): 80 to 100% | pest or weed control at 100 ppm [1]: 80 to 100%

COc1ccnc(C(=O)N[C@H]2COC[C@H](Cc3ccccc3)[C@@H](OCC(F)F)[C@H](C)OC2=O)c1OCOC(C)=O [Compound 44]
pest or weed control at 100 ppm (Puccinia triticina; [2]): 80 to 100% | pest or weed control at 100 ppm (Puccinia triticina; [3]): 80 to 100% | pest or weed control at 100 ppm (Uncinula necator): 0 to 80% | pest or weed control at 100 ppm (Cercospora beticola): 0 to 80%

COc1ccnc(C(=O)N[C@H]2COC[C@H](Cc3ccccc3)[C@@H](OCCC(C)OC)[C@H](C)OC2=O)c1OCOC(C)=O (stereo partly shown) [Compound 46]
pest or weed control at 100 ppm (Puccinia triticina; [2]): 80 to 100% | pest or weed control at 100 ppm (Puccinia triticina; [3]): 80 to 100% | pest or weed control at 100 ppm (Uncinula necator): 0 to 80% | pest or weed control at 100 ppm (Cercospora beticola): 80 to 100%

COc1ccnc(C(=O)N[C@H]2COC[C@H](Cc3ccccc3)[C@@H](OC3CCCC3)[C@H](C)OC2=O)c1OCOC(C)=O [Compound 106]
pest or weed control at 100 ppm (Puccinia triticina; [2]): 80 to 100% | pest or weed control at 100 ppm (Puccinia triticina; [3]): 80 to 100% | pest or weed control at 100 ppm (Cercospora beticola): 80 to 100% | pest or weed control at 100 ppm [1]: 80 to 100%
